For test [1], the target named is T1, CDK4 (Homo sapiens, UniProt P11802). Nature of the test: Enzyme degradation assay (western blot), Molt4 wild-type cells, CDK4. The class given is cell-based. Set-up: levels of CDK4, CDK6, and tubulin in wild-type (WT) or cereblon knockout (CRBN−/−) Molt4 cells; endogenous in cells; host or cells: Molt4 cells, wild-type or cereblon knockout (CRBN-/-). The note with it: wild-type (WT) Molt4 cells, various concentrations, FIG. 2. An excerpt:
(§1) Lysates are then cleared by centrifugation.
(§2) Lysates were then cleared by centrifugation.
Background: In western blotting, separated proteins are transferred to a membrane and probed.

Test [2] concerns the target T1, CDK4. The experiment in a line: Enzyme degradation assay (western blot), Jurkat cells, CDK4. The note with it: 5 μM, various time points, FIG. 1. Type of test: cell-based. Set-up: levels of CDK4, CDK6, and tubulin in wild-type (WT) or cereblon knockout (CRBN−/−) Molt4 cells; endogenous in cells.
Source text: as §1, §2

The values that follow come from patent publication US10865204B2, “Degradation of cyclin-dependent kinase 4/6 (CDK4/6) by conjugation of CDK4/6 inhibitors with E3 ligase ligand and methods of use” (Dana-Farber Cancer Institute, Inc., priority 2016, dated 2020).

T1 sequence (P11802 whole entry): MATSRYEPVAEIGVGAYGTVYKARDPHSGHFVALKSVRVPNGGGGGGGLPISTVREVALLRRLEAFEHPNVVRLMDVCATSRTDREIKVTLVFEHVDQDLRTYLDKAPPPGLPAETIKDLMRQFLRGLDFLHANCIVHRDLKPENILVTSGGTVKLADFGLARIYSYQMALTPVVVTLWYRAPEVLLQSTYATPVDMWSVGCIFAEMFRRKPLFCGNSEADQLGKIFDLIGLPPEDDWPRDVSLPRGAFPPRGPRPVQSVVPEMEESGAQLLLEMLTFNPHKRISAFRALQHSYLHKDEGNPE

Consider `CC(=O)c1c(C)c2cnc(Nc3ccc(N4CCN(CC(=O)NCCOCCOCCOCCNc5cccc6c5C(=O)N(C5CCC(=O)NC5=O)C6=O)CC4)cn3)nc2n(C2CCCC2)c1=O` (centres unmarked) [Compound I-3, 2-(4-(6-((6-acetyl-8-cyclopentyl-5-methyl-7-oxo-7,8-dihydropyrido[2,3-d]pyrimidin-2-yl)amino)pyridin-3-yl)piperazin-1-yl)-N-(2-(2-(2-(2-((2-(2,6-dioxopiperidin-3-yl)-1,3-dioxoisoindolin-4-yl)amino)ethoxy)ethoxy)ethoxy)ethyl)acetamide], for which the “levels of CDK4 (western blot)” value at CDK4 [1] and at CDK4 [2] was “unaffected” in each case.
